Patent US6737383B1, “Herbicidal oxadiazolidines” (priority 1999, dated 2004)

Columns and labels:
Johnson grass = assay: Test D Johnson grass; assay type: in vivo, Sorghum halepense; details: Postemergence, 0 to 100 scale
surinam grass = assay: Test D surinam grass; assay type: in vivo, Brachiaria decumbens; details: Postemergence, 0 to 100 scale
Green foxtail [1] = assay: Test D green foxtail; assay type: in vivo; details: Rate 250 g/ha; Postemergence; 0 to 100 scale
goosegrass = assay: Test D goosegrass; assay type: in vivo, Eleusine indica; details: Postemergence, 0 to 100 scale
common pursiane = assay: Test D common purslane; assay type: in vivo, Portulaca oleracea; details: Postemergence, 0 to 100 scale
large crabgrass = assay: Test D large crabgrass; assay type: in vivo, Digitaria sanguinalis; details: Postemergence, 0 to 100 scale
Green foxtail [2] = assay: Test D green foxtail; assay type: in vivo; details: Postemergence, 0 to 100 scale, 0 no injury, 100 complete control
sandbur = assay: Test D sandbur; assay type: in vivo, Cenchrus echinatus; details: Postemergence, 0 to 100 scale
Green foxtail [3] = assay: Test D green foxtail; assay type: in vivo; details: Rate 250 g/ha; Postemergence; 0 to 100 scale; remark: listed apart in the source
Alexandergrass = assay: Test D Alexandergrass; assay type: in vivo, Brachiaria plantaginea; details: Postemergence, 0 to 100 scale
[4] = Rate 16 g/ha, 0 no injury, 100 complete control
[5] = Rate 32 g/ha, 0 no injury, 100 complete control
[6] = Rate 64 g/ha, 0 no injury, 100 complete control
[7] = Rate 125 g/ha, 0 no injury, 100 complete control

Compound | Plant response rating, Johnsongrass (Johnson grass; [4]) | Plant response rating, Johnsongrass (Johnson grass; [5]) | Plant response rating, Johnsongrass (Johnson grass; [6]) | Plant response rating, Johnsongrass (Johnson grass; [7]) | Plant response rating, Johnsongrass (Johnson grass; Rate 250 g/ha) | Plant response rating, Surinam grass (surinam grass; [4]) | Plant response rating, Surinam grass (surinam grass; [5]) | Surinam grass plant response rating (surinam grass; [6]) | Surinam grass plant response rating (surinam grass; [7]) | Plant response rating, Surinam grass (surinam grass; Rate 250 g/ha) | Plant response rating, Green foxtail (Green foxtail [1]) | Plant response rating, Goosegrass (goosegrass; [4]) | Plant response rating, Goosegrass (goosegrass; [5]) | Plant response rating, Goosegrass (goosegrass; [6]) | Plant response rating, Goosegrass (goosegrass; [7]) | Plant response rating, Goosegrass (goosegrass; Rate 250 g/ha) | Plant response rating, C. purslane (common pursiane; [4]) | Plant response rating, C. purslane (common pursiane; [5]) | Plant response rating, C. purslane (common pursiane; [6]) | Plant response rating, C. purslane (common pursiane; [7]) | other results
CC(C)N(C(=O)n1oc(=O)n(C2CC2)c1=O)c1ccc(Cl)cc1 [Compound 241] | 80 | 0 | 0 | 0 | 0 | 0 | 0 | 60 | 100 | 100 | 100 | 0 | 100 | 100 | 100 | 100 | 0 | 0 | 0 | 0 | Plant response rating, C. purslane (common pursiane; Rate 250 g/ha): 0; Plant response rating, Large crabgrass (large crabgrass; [4]): 0; Plant response rating, Large crabgrass (large crabgrass; [5]): 70; Plant response rating, Large crabgrass (large crabgrass; [6]): 100; Plant response rating, Large crabgrass (large crabgrass; [7]): 100; Plant response rating, Large crabgrass (large crabgrass; Rate 250 g/ha): 100; Plant response rating, Green foxtail (Green foxtail [2]; Rate 16 g/ha): 0; Plant response rating, Green foxtail (Green foxtail [2]; Rate 32 g/ha): 10; Plant response rating, Sandbur (sandbur; [4]): 0; Plant response rating, Sandbur (sandbur; [5]): 40; Sandbur plant response rating (sandbur; [6]): 20; Sandbur plant response rating (sandbur; [7]): 100; Plant response rating, Sandbur (sandbur; Rate 250 g/ha): 90; Plant response rating, Green foxtail (Green foxtail [3]): 100; Plant response rating, Alexandergrass (Alexandergrass; [4]): 0; Plant response rating, Alexandergrass (Alexandergrass; [5]): 10; Plant response rating, Alexandergrass (Alexandergrass; [6]): 10; Plant response rating, Alexandergrass (Alexandergrass; [7]): 100; Plant response rating, Alexandergrass (Alexandergrass; Rate 250 g/ha): 100
CC(C)N(C(=O)n1oc(=O)n(C2CCC2)c1=O)c1ccccc1 [Compound 348] | 0 | 0 | 0 | 20 | 90 | 0 | 0 | 20 | 80 | 100 | 100 | 50 | 90 | 100 | 100 | 100 | 0 | 0 | 0 | 0 | Plant response rating, C. purslane (common pursiane; Rate 250 g/ha): 0; Plant response rating, Large crabgrass (large crabgrass; [4]): 20; Plant response rating, Large crabgrass (large crabgrass; [5]): 60; Plant response rating, Large crabgrass (large crabgrass; [6]): 100; Plant response rating, Large crabgrass (large crabgrass; [7]): 100; Plant response rating, Large crabgrass (large crabgrass; Rate 250 g/ha): 100; Plant response rating, Green foxtail (Green foxtail [2]; Rate 16 g/ha): 0; Plant response rating, Green foxtail (Green foxtail [2]; Rate 32 g/ha): 20; Plant response rating, Sandbur (sandbur; [4]): 0; Plant response rating, Sandbur (sandbur; [5]): 0; Sandbur plant response rating (sandbur; [6]): 20; Sandbur plant response rating (sandbur; [7]): 60; Plant response rating, Sandbur (sandbur; Rate 250 g/ha): 100; Plant response rating, Green foxtail (Green foxtail [3]): 100; Plant response rating, Alexandergrass (Alexandergrass; [4]): 0; Plant response rating, Alexandergrass (Alexandergrass; [5]): 0; Plant response rating, Alexandergrass (Alexandergrass; [6]): 70; Plant response rating, Alexandergrass (Alexandergrass; [7]): 100; Plant response rating, Alexandergrass (Alexandergrass; Rate 250 g/ha): 100
CC(C)N(C(=O)n1oc(=O)n(C2CCC2)c1=O)c1ccc(Cl)cc1 [Compound 349] | 0 | 0 | 0 | 10 | 40 | 0 | 0 | 0 | 10 | 60 | 100 | 0 | 20 | 100 | 100 | 90 | 0 | 0 | 0 | 0 | Plant response rating, C. purslane (common pursiane; Rate 250 g/ha): 0; Plant response rating, Large crabgrass (large crabgrass; [4]): 0; Plant response rating, Large crabgrass (large crabgrass; [5]): 0; Plant response rating, Large crabgrass (large crabgrass; [6]): 70; Plant response rating, Large crabgrass (large crabgrass; [7]): 100; Plant response rating, Large crabgrass (large crabgrass; Rate 250 g/ha): 100; Plant response rating, Green foxtail (Green foxtail [2]; Rate 16 g/ha): 0; Plant response rating, Green foxtail (Green foxtail [2]; Rate 32 g/ha): 0; Plant response rating, Sandbur (sandbur; [4]): 0; Plant response rating, Sandbur (sandbur; [5]): 0; Sandbur plant response rating (sandbur; [6]): 0; Sandbur plant response rating (sandbur; [7]): 20; Plant response rating, Sandbur (sandbur; Rate 250 g/ha): 80; Plant response rating, Green foxtail (Green foxtail [3]): 100; Plant response rating, Alexandergrass (Alexandergrass; [4]): 0; Plant response rating, Alexandergrass (Alexandergrass; [5]): 0; Plant response rating, Alexandergrass (Alexandergrass; [6]): 40; Plant response rating, Alexandergrass (Alexandergrass; [7]): 70; Plant response rating, Alexandergrass (Alexandergrass; Rate 250 g/ha): 90
